Measurements from patent US20250313563A1, “GLYCOGEN SYNTHASE KINASE 3 INHIBITORS AND USES THEREOF” (The Broad Institute, Inc., priority 2022, published 2025).
Read-outs that look alike come from different tables or passages of the source.

Assays:
NanoLuc-GSK3β = NanoLuc-GSK3β (Homo sapiens (Human), UniProt P49841); assay: NanoBRET live-cell target engagement assay, GSK3β; format: cell-based; details: HEK293T cells, Tracer-8 at EC50
Protocol: (§1) HEK293T cells were transiently transfected with NanoLuc®-GSK3-alpha or NanoLuc®-GSK3-beta constructs using FuGene®-HD (Promega). Next day, the live cell NanoBRETTM target engagement assay was performed. […] Immediately prior to BRET measurements, NanoBRETTM Nano-Glo® Substrate and Extracellular NanoLuc® Inhibitor were added on cells and incubated for 2-3 minutes at room temperature. Donor emission at 450 nm and acceptor emission at 610 nm were measured using a EnVision plate reader. Raw BRET ratio values were calculated by dividing the acceptor emission value by the donor emission value for each sample. Raw BRET units were converted to milliBRET units (mBU) by multiplying each raw BRET value by 1000. mBU values for compound treatments were normalized to DMSO treatment. Ki values are calculated using the formula: Ki=(IC50)/(1+([Tracer]/EC50)). All experiments were performed as biological triplicates with three technical replications.
(§2) To further characterize the GSK3 inhibitor 837646, this compound was tested in a live-cell target engagement assay to investigate binding mode and residence time. […] In this assay, compound binding was quantified as loss of BRET signal from baseline due to competitive displacement of the tracer. […]

[1] = system: β-catenin nuclear translocation in SH-SY5Y cells; assay: β-catenin translocation assay; format: cell-based
Protocol: SH-SY5Y cells were seeded into a 96-well CellCarrier Ultra (Perkin Elmer) plate at a density of 1×10^5 cells/ml in complete DMEM. Sixteen hours following plating, media was changed to DMEM with 2% serum, and compound was added with a D300e Digital Dispenser (Tecan) for an incubation time of six hours. After compound incubation, media was removed, and cells were fixed with 4% PFA for 10 minutes at room temperature. Each well was washed three times with PBS-T and then blocked with buffer (1×PBS with 5% Normal Goat Serum and 0.3% Triton X-100) for 30 minutes at room temperature. β-Catenin primary antibody (Cell Signaling #8480) was added at 1:500 dilution in blocking buffer and the cells were allowed to incubate in primary overnight at 4° C. The following day, primary antibody was removed, each well was washed three times with PBS-T, and secondary antibody (1:2000 anti-rabbit AlexaFluor Plus 488 and 1:10,000 Hoechst 33342) was added and allowed to incubate for 60 minutes at room temperature protected from light. After one-hour, secondary antibody was removed and wells were washed four times with PBS-T before imaging on the Opera Phenix. Sixteen fields per well were imaged with a 20× water lens.
Images were quantified in the Columbus Image Data Storage and Analysis software. Cells were identified using the Hoechst nuclear stain to identify individual nuclei. Intensity of the nuclear stain was also used to determine cell viability (Viable cells <30% CV of Hoechst Intensity)

GSK3α = GSK3α (Homo sapiens (Human), UniProt P49840); assay: pThr231 tau phosphorylation plate-based assay in HEK-huTau cells transfected with GSK3α; format: cell-based
Sequence of GSK3α (P49840 whole entry): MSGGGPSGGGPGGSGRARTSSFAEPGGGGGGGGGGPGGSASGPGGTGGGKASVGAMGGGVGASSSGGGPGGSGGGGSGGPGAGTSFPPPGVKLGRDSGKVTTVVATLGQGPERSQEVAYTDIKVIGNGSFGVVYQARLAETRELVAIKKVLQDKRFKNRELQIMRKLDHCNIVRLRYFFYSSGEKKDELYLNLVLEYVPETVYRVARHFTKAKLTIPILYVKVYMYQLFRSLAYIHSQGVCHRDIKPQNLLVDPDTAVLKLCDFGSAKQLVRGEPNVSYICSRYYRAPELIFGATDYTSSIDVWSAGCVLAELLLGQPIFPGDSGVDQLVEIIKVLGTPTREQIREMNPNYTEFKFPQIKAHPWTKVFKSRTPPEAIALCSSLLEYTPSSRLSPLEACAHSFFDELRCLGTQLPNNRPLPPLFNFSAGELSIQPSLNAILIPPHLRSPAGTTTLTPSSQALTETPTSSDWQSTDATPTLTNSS
Protocol: (§3) HEK293 or SH-SY5Y cells were obtained from American Type Culture Collection (ATCC, Manassas, VA) and cultured in Dulbecco's modified Eagle's medium (DMEM) supplemented with 10% fetal bovine serum (FBS), 10 units/ml penicillin, and 10 μg/ml streptomycin (all reagents were purchased from Gibco, Waltham, MA). Cell cultures were maintained in a humidified 5% (v/v) CO2/air environment at 37° C. When the cells reached 50-80% confluence, they were transfected with a complex consisting of a 3:1 ratio of FuGENE 6 Transfection Reagent (Promega, Madison, WI) and plasmid DNA. Plasmid DNA was balanced out across reactions using an empty plasmid so that the same amount of DNA was added per well. This transfection complex was prepared following the manufacturers protocol and added directly to the cell media for 24 or 48 hours prior to lysis.
(§4) 293T cells stably expressing human 2N4R Tau were transfected with appropriate cDNA plasmids. 24 hours following transfection cells were treated with compound in a 10-point dose-response (from 1000× stocks of compound) and lysates harvested 2 hours later with cell extraction buffer (Life Technologies Cat #BN0001) or RIPA Buffer with Halt protease/phosphatase inhibitors added.
(§5) For pThr231 assay: Lysate was diluted 1:100 in assay buffer and Total Tau and pTau T231 was assessed by plate-based ELISA as per manufacturer instructions (MSD Cat #K15121D-1). Total fluorescence was measured using an Envison plate reader.
(§6) To test the potency and isoform selectivity of GSK3 small molecule inhibitors, HEK-huTau cells were transfected with plasmids containing either human GSK3α or GSK3β. Twenty-four hours after transfection, compounds were added at a 10-point dose response curve (at a range of 30 μM-3 nM) for a total of 2 hours, and cell lysates were probed for total tau and pThr231 using a plate-based assay.

human GSK3β = human GSK3β (Homo sapiens (Human), UniProt P49841); assay: pThr231 tau phosphorylation plate-based assay in HEK-huTau cells transfected with GSK3β; format: cell-based
Sequence of human GSK3β (P49841 whole entry): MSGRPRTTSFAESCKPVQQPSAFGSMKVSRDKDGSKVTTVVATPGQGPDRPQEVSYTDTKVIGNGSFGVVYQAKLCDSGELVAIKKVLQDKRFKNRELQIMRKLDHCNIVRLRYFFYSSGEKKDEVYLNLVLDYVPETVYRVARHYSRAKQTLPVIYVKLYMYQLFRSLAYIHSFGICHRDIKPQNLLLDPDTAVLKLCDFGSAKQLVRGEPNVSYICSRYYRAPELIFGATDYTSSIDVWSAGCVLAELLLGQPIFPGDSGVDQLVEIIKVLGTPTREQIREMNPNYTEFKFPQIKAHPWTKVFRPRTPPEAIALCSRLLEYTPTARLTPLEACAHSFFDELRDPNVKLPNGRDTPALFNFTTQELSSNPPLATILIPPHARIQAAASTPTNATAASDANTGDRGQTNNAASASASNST
Protocol: as §3, §4, §5, §6

[2] = biological target: GSK3b (GST-full length GSK3b) (Homo sapiens (Human), UniProt P49841); assay: GSK3b TR-FRET kinase assay; format: biochemical
Sequence of GSK3b (GST-full length GSK3b) (P49841 whole entry): as above
Method in brief: (§7)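 Full-length GST-tagged human enzyme (1 nM) is exposed to test compound for 30 min before substrates are added. Phosphorylation of a primed biotinylated glycogen synthase peptide proceeds 100 min at room temperature at low ATP (4 μM α; 2 μM β) or high ATP (1 mM). Product is quantified by TR-FRET.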

NanoLuc-GSK3α [3] = biological target: T1, NanoLuc-GSK3α (Homo sapiens (Human), UniProt P49840); assay: NanoBRET live-cell target engagement assay, GSK3α; format: cell-based; details: HEK293T cells, Tracer-8 at EC50
T1 sequence (P49840 whole entry): as the sequence (P49840 whole entry) above
Protocol: as §1, §2

NanoLuc-GSK3α [4] = biological target: T1, NanoLuc-GSK3α; assay: NanoBRET residence time, GSK3α; format: cell-based; details: inhibitor at 10× IC50, BRET every 5 min for 3 hours
[5] = biological target: GSK3α (GST-full length GSK3α) (Homo sapiens (Human), UniProt P49840); assay: GSK3α TR-FRET kinase assay; format: biochemical
Sequence of GSK3α (GST-full length GSK3α) (P49840 whole entry): as above
Method in brief: as §7

[6] = Microsomal stability (MIC), human; format: in vitro ADME; details: human liver microsomes
Protocol: (§8) Stability of compound in liver microsomes was tested in duplicate by incubating compound at 1 μM for 60 minutes at 37° C. Compound level at 60 minutes was compared to level at 0 minutes, and percent remaining was calculated. Assay Parameters
(§9) Available species: human and mouse (CD-1). Compound requirements: 5 μL of a 10 mM DMSO solution. Incubation time: 60 minutes at 37° C. Test Concentration: 1 μM.
(§10) Microsomes with NADPH without compound-matrix interference. Microsomes plus compound without NADPH—non-enzymatic instability.

[7] = Microsomal stability (MIC), mouse; format: in vitro ADME, mouse (CD-1); details: mouse liver microsomes
Protocol: as §8, §9, §10

[8] = system: MDR1-MDCK cell monolayers; assay: MDR1/MDCK assay (blood-brain barrier penetration potential); format: in vitro ADME; details: 5 μM, pH 7.4, 120 minutes; for MDCK permeability (MDR1-MDCK); Mean; Papp (A − B): A to B; for MDCK permeability (MDR1-MDCK); Mean; Papp (B − A): B to A
Protocol: The MDR1/MDCK assay is run at Absorption Systems. This assay is used to determine the blood-brain barrier (BBB) penetration potential of a test compound using MDR1-MDCK cell monolayers. Catalog number EA203.
• Test compound at 5 μM in HBSSg with maximum DMSO concentration not greater than 1%.
• Confluent monolayers of MDR1-MDCK cells, 7 to 11 days old.
• Receiver well with 1% BSA in modified Hanks buffer (HBSSg) • Apical and basolateral side at pH 7.4 • Dose two monolayers in each direction (N=2) • Dose apical side for (A to B) assessment • Dose basolateral side for (B to A) assessment • Sample both apical and basolateral sides at 120 minutes • Determine the concentrations of test compound using a generic LC-MS/MS method with a minimum 4 point calibration curve.
• The quality of the cell monolayer batch is verified using control compounds before monolayers are released for use • The quality of each monolayer used in the assay is verified by a TEER measurement and by calculating the Papp for a control compound.

[9] = read-out: GSK3-B (TR-FRET 1 mM ATP), GMean, IC50, 1 mM ATP, geometric mean
[10] = read-out: GSK3-A (TR-FRET 1 mM ATP), GMean, IC50, 1 mM ATP, geometric mean

Sequence of NanoLuc-GSK3β (P49841 whole entry): as the sequence (P49841 whole entry) above

| Microsome stability (human); in vitro T1/2 [6] [min] | Microsome stability (mouse); in vitro T1/2 [7] [min] | IC50 [2, 9] [µM] | IC50 [5, 10] [µM] | MDCK permeability (MDR1-MDCK); Mean; Papp Ratio (B − A/A − B) (efflux ratio) [8] | MDCK permeability (MDR1-MDCK); Mean; Papp (A − B) [8] | MDCK permeability (MDR1-MDCK); Mean; Papp (B − A) [8] | SMILES | other results |
| --- | --- | --- | --- | --- | --- | --- | --- | --- |
|  |  |  |  |  |  |  | CCC1(c2cccc(-c3cn(C)nc3C)c2)C2=C(Nc3n[nH]cc31)C(F)C(C)(C)CC2=O (single isomer, unassigned) [Compound 947651, 4-(3-(1,3-dimethyl-1H-pyrazol-4-yl)phenyl)-4-ethyl-8-fluoro-7,7-dimethyl-2,4,6,7,8,9-hexahydro-5H-pyrazolo[3,4-b]quinolin-5-one] | binding mode (competitive displacement of tracer), GSK3β (NanoLuc-GSK3β): ATP-competitive and direct GSK3 binders; β-catenin nuclear translocation (in words) ([1]; SH-SY5Y cells): nuclear translocation of β-catenin occurred at concentrations in which both GSK3 paralogs are being inhibited; IC50 (GSK3α; HEK-huTau cells transfected with human GSK3α, 10-point dose response, 2 hours, read-out: GSK3α IC50 (inhibition of pThr231)): 0.061 µM; selectivity for GSK3α over GSK3β (GSK3α; pThr231 HEK-huTau assay, GSK3β IC50 / GSK3α IC50): 23 fold; IC50 (human GSK3β; HEK-huTau cells transfected with human GSK3β, 10-point dose response, 2 hours, read-out: GSK3β IC50 (inhibition of pThr231)): 1.4 µM; IC50 ([2]; 1 nM GSK3b, 2 μM ATP, 30 minute preincubation, Table 16, read-out: GSK3-B TR-FRET BIOCHEMICAL (TR-FRET)): ≤ 0.1 µM; IC50 ([2]; GSK3-B (TR-FRET 1 mM ATP), GMean, IC50, 1 mM ATP, geometric mean): 0.1 to 1 µM; binding mode (competitive displacement of tracer), GSK3α (NanoLuc-GSK3α [3]): ATP-competitive and direct GSK3 binders; residence time at GSK3α (NanoLuc-GSK3α [4]): significantly longer residence times; IC50 ([5]; 1 nM GSK3α, 4 μM ATP, 30 minute preincubation, Table 16, read-out: GSK3-A TR-FRET BIOCHEMICAL (TR-FRET)): ≤ 0.1 µM; IC50 ([5]; GSK3-A (TR-FRET 1 mM ATP), GMean, IC50, 1 mM ATP, geometric mean): ≤ 0.1 µM |
|  |  |  |  |  |  |  | N#Cc1ccc2[nH]c(O)c(-c3ccc(CN4CCOCC4)cn3)c2c1 [AZ1080, AZD1080, reference compound] | IC50 ([1]; Homo sapiens, SH-SY5Y cells, 6 hours): 3 µM |
|  |  |  |  |  |  |  | CC[C@@]1(c2ccccc2)C2=C(CC(C)(C)CC2=O)Nc2[nH]ncc21 [BRD0705, reference compound] | window between potency on tau phosphorylation by GSK3α and concentrations affecting β-catenin stabilization ([1]; HEK-huTau GSK3α vs SH-SY5Y β-catenin): > 5 fold; toxicity of compound in HEK-huTau assay (doses) (human GSK3β; GSK3β IC50 undetermined due to toxicity): > 30 µM |
| 12.3 | 6.4 | ≤ 0.1 | 0.1 to 1 |  |  |  | CC(C)(C)Cc1[nH]nc2c1C(C)(c1cccc(S(C)(=O)=O)c1)C1=C(CC(C)(C)CC1=O)N2 (centres unmarked) [Compound 114687] |  |
| 1.4 | 0.5 | 0.1 to 1 | 1 to 5 | 42.3 | 1.65 10^−6 cm/s | 70 10^−6 cm/s | CN1CC2(C3=C(CC(C)(C)CC3=O)Nc3n[nH]c(C4CC(F)(F)C4)c32)c2ccccc21 (centres unmarked) [Compound 119048] |  |
| 26.2 | 36 | 0.1 to 1 | 1 to 5 | 301 | 0.2 10^−6 cm/s | 61.2 10^−6 cm/s | CC(C)(C)Cc1[nH]nc2c1C(C)(c1cc(S(C)(=O)=O)ccc1F)C1=C(CC(C)(C)CC1=O)N2 (centres unmarked) [Compound 125976] |  |
| 0.6 | 0.6 | 0.1 to 1 | 1 to 5 | 7.49 | 10.8 10^−6 cm/s | 81.2 10^−6 cm/s | CN1CC2(C3=C(CC(C)(C)CC3=O)Nc3n[nH]c(CC(C)(C)C)c32)c2ccccc21 (centres unmarked) [Compound 125978] |  |
| 104.9 | >145 | ≤ 0.1 | 1 to 5 |  |  |  | Cc1ccc(S(C)(=O)=O)cc1C1(C)C2=C(CC(C)(C)CC2=O)Nc2n[nH]c(CC(C)(C)C)c21 (centres unmarked) [Compound 126397] |  |
| >145 | 74.5 | 0.1 to 1 | 1 to 5 |  |  |  | CC1(C)CC(=O)C2=C(C1)Nc1n[nH]c(C3CC(F)(F)C3)c1C21COc2ccccc21 (centres unmarked) [Compound 127430] |  |
